From patent US8658183B2, “Antimicrobial parenteral formulation” (Taigen Biotechnology Company, Ltd., priority 2007, dated 2014)
≈ marks a conversion by molar mass, not a printed value. Like-named read-outs stand apart in the source and are kept apart here.

Experiments:
[1] = Effect of pH on Compound 1 saline formulation; type: physicochemical
Protocol: 2000 mL solution of Compound 1 in 0.9% saline was prepared in the same manner as described above. The solution was equally divided into 6 portions. The pH values for the 6 portions were adjusted to 2.43, 3.00, 3.76, 4.51, 6.01 and 7.13 by adding dilute hydrochloric acid or sodium hydroxide. The appearance and content of solutions were analyzed and shown below.

[2] = Effect of temperature and time during sterilization on Compound 1 saline formulation; type: physicochemical; details: 0.9% saline
Protocol: To the solution was added 1.5 g of activated charcoal (0.05% g/mL). The mixture was stirred for 15 min and filtered. The filtrate was added to a serious of 100-mL polypropylene bottles. The filled bottles were capped, sealed, and divided into four groups (7 bottles/group).

[3] = Effect of lower temperature (−15° C.) on Compound 1 saline formulation; type: physicochemical; details: 5 mg/mL in 0.9% saline
[4] = Long-term and accelerated storage stability of Compound 1 saline formulation; type: physicochemical; details: 5 mg/mL (free base) in 0.9% saline
Protocol: At each sampling point (marked as “X” in the above table), samples were evaluated for their appearance, color, clarity, pH, UV absorption, assay and impurity.

Bacteroides species = assay: In vitro antibacterial activity, agar dilution; type: cell-based; details: anaerobic pathogens, clinical isolates
Protocol: (§1) Various bacterial species, such as Gram positive bacteria (e.g., Clostridium, Staphylococcus and Streptococcus), Gram negative bacteria (e.g., Moraxella, Haemophilus, Pseudomonas, Proteus, and Bacteriodes), anaerobic and atypical pathogens, were isolated from clinical samples. The antibacterial activity of Compound of Formula I against these bacterial species were determined using agar dilution assays described in the U.S. National Committee for Clinical Laboratory, M7-A6, 2003, and M11-A5, 2001.

Clostridium difficile = assay: In vitro antibacterial activity, agar dilution; type: cell-based; details: anaerobic pathogen, clinical isolates
Protocol: as §1

E. coli = assay: In vitro antibacterial activity, agar dilution; type: cell-based; details: clinical isolates
Protocol: as §1

[5] = test system: Gram positive, Gram negative, anaerobic, and atypical pathogens; assay: In vitro antibacterial activity, agar dilution; type: cell-based; details: clinical isolates
Protocol: as §1

Haemophilus influenzae = assay: In vitro antibacterial activity, agar dilution; type: cell-based; details: clinical isolates
Protocol: as §1

Klebsiella pneumoniae = assay: In vitro antibacterial activity, agar dilution; type: cell-based; details: clinical isolates
Protocol: as §1

Moraxella catarrhalis = assay: In vitro antibacterial activity, agar dilution; type: cell-based; details: clinical isolates
Protocol: as §1

Neisseria gonorrhoeae = assay: In vitro antibacterial activity, agar dilution; type: cell-based; details: clinical isolates
Protocol: as §1

Proteus mirabilis = assay: In vitro antibacterial activity, agar dilution; type: cell-based; details: clinical isolates
Protocol: as §1

Pseudomonas aeruginosa = assay: In vitro antibacterial activity, agar dilution; type: cell-based; details: clinical isolates
Protocol: as §1

S. pneumoniae = assay: In vitro antibacterial activity, agar dilution; type: cell-based
Protocol: as §1

enteric organisms = assay: In vitro antibacterial activity, agar dilution; type: cell-based; details: clinical isolates
Protocol: as §1

[6] = test system: methicillin-susceptible S. aureus (MSSA); assay: In vitro antibacterial activity, agar dilution; type: cell-based
Protocol: as §1

S. pneumoniae Stp 6301 = assay: In vivo antibacterial efficacy, mouse pulmonary infection model
Protocol: The in vivo antibacterial efficacy of Compound 1 was evaluated in a mouse model. Mice were anesthetized and infected intranasally with a lethal amount of S. pneumoniae Stp 6301. Twelve, eighteen, and twenty-four hours after the infection, a composition containing Compound 1 or moxifloxacin (as a positive control), 0.7% lactic acid, and 3% dextrose was administered subcutaneously to the mice at a total dose of 50, 25, 12.5, or 6.25 mg/kg. Half of the treated mice were euthanized four hours after the last treatment of Compound 1 or moxifloxacin and their blood and lung tissues were collected. The number of viable bacteria in the blood and lung tissues was then determined. The lung tissues were also subjected to histopathologic evaluation. The other half of the mice were monitored for 6 days and the number of the surviving mice was recorded.

[7] = 5 mg/mL in 0.9% saline
Protocol: The solution was filtered and transferred to 100-mL polypropylene bottles. The bottles were capped, sealed, sterilized at 110° C. for 35 min, and stored at 60° C. oven. The solution in the bottles was analyzed on days 0, 5, and 10.

[8] = for Appearance: 5 mg/mL (free base) in 0.9% saline, light box 4500Lx+/−500Lx; for UV Absorption: compared with Standard; for UV Absorption / pH Value: intense light 4500Lx+/−500Lx
[9] = 5 mg/mL in 0.9% saline, pH 3.00
[10] = 5 mg/mL in 0.9% saline, pH 3.76 (no acid/base added)
[11] = 5 mg/mL in 0.9% saline, pH 6.01
[12] = sterile temperature N/A (control group)

COc1c(N2C[C@@H](C)C[C@H](N)C2)ccc2c(=O)c(C(=O)O)cn(C3CC3)c12 [Compound 1, (3S,5S)-7-[3-amino-5-methyl-piperidinyl]-1-cyclopropyl-1,4-dihydro-8-methoxy-4-oxo-3-quinolinecarboxylic acid]
pH Value ([1]; 5 mg/mL in 0.9% saline, no acid/base added): 3.76 | Appearance [1, 9]: clear yellow solution | Comparative content of Compound 1 (%) [1, 9]: 94.87% | Appearance [1, 10]: clear yellow solution | Comparative content of Compound 1 (%) [1, 10]: 103.62% | Appearance [1, 11]: clear yellow solution | Comparative content of Compound 1 (%) [1, 11]: 99.63% | pH at which Compound 1 precipitated ([1]; 5 mg/mL in a saline solution): 6.6 | Content (%) [2, 12]: 95.20% | Total Impurity (%) [2, 12]: 0.167% | pH Value [2, 12]: 3.86 | Content (%) ([2]; sterilization 105° C./35 min): 96.44% | Total Impurity (%) ([2]; sterilization 105° C./35 min): 0.198% | pH Value ([2]; sterilization 105° C./35 min): 3.86 | Content (%) ([2]; sterilization 110° C./35 min): 95.86% | Total Impurity (%) ([2]; sterilization 110° C./35 min): 0.240% | pH Value ([2]; sterilization 110° C./35 min): 3.86 | Content (%) ([2]; sterilization 115° C./35 min): 95.98% | Total Impurity (%) ([2]; sterilization 115° C./35 min): 0.509% | pH Value ([2]; sterilization 115° C./35 min): 3.85 | Appearance ([3]; 0 day at −15° C.): Clear yellow | Content ([3]; 0 day at −15° C.): 102.6 | Total Impurity (%) ([3]; 0 day at −15° C.): 0.378% | pH Value ([3]; 0 day at −15° C.): 3.90 | Appearance ([3]; 5 days at −15° C.): Clear yellow | Content ([3]; 5 days at −15° C.): 102.8 | Total Impurity (%) ([3]; 5 days at −15° C.): 0.370% | pH Value ([3]; 5 days at −15° C.): 3.89 | Appearance ([3]; 10 days at −15° C.): Clear yellow | Content ([3]; 10 days at −15° C.): 103.5 | Total Impurity (%) ([3]; 10 days at −15° C.): 0.373% | pH Value ([3]; 10 days at −15° C.): 3.89 | Appearance, compound content, pH and total impurity (summary in words) ([3]; −15° C. for 10 days): maintained the same | Changes in appearance, color, clarity, pH, UV absorption, assay and impurity ([4]; 25° C., 60% RH, 12 months): No significant changes | Changes in appearance, color, clarity, pH, UV absorption, assay and impurity ([4]; 40° C., 20% RH, 6 months): No significant changes | antibacterial activity (in words) (Bacteroides species): active | antibacterial activity (in words) (Clostridium difficile): active | MIC90 (E. coli): 0.12 µg/mL (≈ 0.323 µM) | antibacterial activity (in words) [5]: potent, broad-spectrum antibacterial activity | MIC90 (Haemophilus influenzae): 0.12 µg/mL (≈ 0.323 µM) | MIC90 (Klebsiella pneumoniae): 1 µg/mL (≈ 2.69 µM) | MIC90 (Moraxella catarrhalis): 0.03 µg/mL (≈ 0.0808 µM) | MIC90 (Neisseria gonorrhoeae): 0.06 µg/mL (≈ 0.162 µM) | MIC90 (Proteus mirabilis): 0.5 µg/mL (≈ 1.35 µM) | antibacterial activity (in words) (Pseudomonas aeruginosa): active against many isolates | MIC90 (S. pneumoniae; macrolide-resistant S. pneumoniae isolates): 0.12 µg/mL (≈ 0.323 µM) | MIC90 (S. pneumoniae; penicillin-resistant S. pneumoniae isolates): 0.12 µg/mL (≈ 0.323 µM) | MIC90 (S. pneumoniae; susceptible S. pneumoniae isolates): 0.12 µg/mL (≈ 0.323 µM) | antibacterial activity (in words) (enteric organisms): active against most enteric organisms | MIC90 ([6]; ciprofloxacin-resistant MSSA clinical isolates): 0.5 µg/mL (≈ 1.35 µM) | MIC90 ([6]; ciprofloxacin-sensitive MSSA clinical isolates): 0.06 µg/mL (≈ 0.162 µM) | survival (S. pneumoniae Stp 6301; lethal intranasal infection, s.c. total dose 50, 25, 12.5 or 6.25 mg/kg (all tested levels), monitored 6 days): 100% | viable bacteria in lung and blood (S. pneumoniae Stp 6301; mice infected intranasally, s.c. 12, 18, 24 h after infection, total dose 50, 25, 12.5 or 6.25 mg/kg (all levels), 4 h after last treatment, vs vehicle-treated controls): significantly reduced | efficacy compared with moxifloxacin (S. pneumoniae Stp 6301; same dosage levels, pulmonary infection model): more efficacious than moxifloxacin | Appearance ([7]; sterilized, 0 day): Clear yellow | Comparative content of Compound 1 (%) ([7]; sterilized, 0 day): 102.6% | Total Impurity (%) ([7]; sterilized, 0 day): 0.378% | pH Value ([7]; sterilized, 0 day): 3.90 | Appearance ([7]; 5 days at 60° C.): Clear yellow | Comparative content of Compound 1 (%) ([7]; 5 days at 60° C.): 103.2% | Total Impurity (%) ([7]; 5 days at 60° C.): 0.375% | pH Value ([7]; 5 days at 60° C.): 3.88 | Appearance ([7]; 10 days at 60° C.): Clear yellow | Comparative content of Compound 1 (%) ([7]; 10 days at 60° C.): 104.0% | Total Impurity (%) ([7]; 10 days at 60° C.): 0.410% | pH Value ([7]; 10 days at 60° C.): 3.88 | Appearance ([8]; 0 day): Clear yellow | Appearance ([8]; 5 days): Clear yellow | Appearance ([8]; 10 days): Clear yellow | UV Absorption ([8]; 0 day): Consist with | UV Absorption ([8]; 5 days): Consist with | UV Absorption ([8]; 10 days): Consist with | pH Value ([8]; 0 day): 3.90 | pH Value ([8]; 5 days): 3.89 | pH Value ([8]; 10 days): 3.89
